Results taken from ChEMBL document CHEMBL5537214 (RSC Med Chem, 2024).

Columns and labels:
Acetylcholinesterase [1] = target: Acetylcholinesterase (Electrophorus electricus, UniProt O42275); assay: Inhibition of electric eel AChE using acetylthiocholine iodide as substrate incubated for 15 mins by Ellman's method
in vitro = settings: PAMPA
[2] = Lipophilicity, log P of the compound; type: physicochemical; settings: octanol/water
Acetylcholinesterase [3] = target: Acetylcholinesterase (Homo sapiens, UniProt P22303)
Description: Inhibition of AChE (unknown origin)

physchem = settings: octanol/water
Description: Lipophilicity, log D of compound

Acetylcholinesterase (Electrophorus electricus, UniProt O42275), sequence (O42275 whole entry): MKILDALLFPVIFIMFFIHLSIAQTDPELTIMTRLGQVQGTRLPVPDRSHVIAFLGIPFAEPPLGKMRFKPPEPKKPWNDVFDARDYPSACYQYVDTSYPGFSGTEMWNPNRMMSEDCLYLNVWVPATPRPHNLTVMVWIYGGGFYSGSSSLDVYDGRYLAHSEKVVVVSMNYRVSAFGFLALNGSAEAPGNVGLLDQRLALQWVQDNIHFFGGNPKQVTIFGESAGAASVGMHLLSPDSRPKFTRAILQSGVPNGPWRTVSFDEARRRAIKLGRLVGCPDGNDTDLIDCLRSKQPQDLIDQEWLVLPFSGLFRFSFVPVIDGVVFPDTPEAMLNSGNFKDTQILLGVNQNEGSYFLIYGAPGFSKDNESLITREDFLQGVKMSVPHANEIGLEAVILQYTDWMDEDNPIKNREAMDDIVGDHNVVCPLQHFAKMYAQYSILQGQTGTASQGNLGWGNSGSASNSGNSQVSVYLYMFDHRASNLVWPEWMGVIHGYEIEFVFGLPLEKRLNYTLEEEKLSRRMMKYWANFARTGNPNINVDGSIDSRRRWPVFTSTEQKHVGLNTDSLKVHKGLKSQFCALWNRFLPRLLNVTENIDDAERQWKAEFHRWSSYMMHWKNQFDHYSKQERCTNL
Acetylcholinesterase (Homo sapiens, UniProt P22303), sequence (P22303 whole entry): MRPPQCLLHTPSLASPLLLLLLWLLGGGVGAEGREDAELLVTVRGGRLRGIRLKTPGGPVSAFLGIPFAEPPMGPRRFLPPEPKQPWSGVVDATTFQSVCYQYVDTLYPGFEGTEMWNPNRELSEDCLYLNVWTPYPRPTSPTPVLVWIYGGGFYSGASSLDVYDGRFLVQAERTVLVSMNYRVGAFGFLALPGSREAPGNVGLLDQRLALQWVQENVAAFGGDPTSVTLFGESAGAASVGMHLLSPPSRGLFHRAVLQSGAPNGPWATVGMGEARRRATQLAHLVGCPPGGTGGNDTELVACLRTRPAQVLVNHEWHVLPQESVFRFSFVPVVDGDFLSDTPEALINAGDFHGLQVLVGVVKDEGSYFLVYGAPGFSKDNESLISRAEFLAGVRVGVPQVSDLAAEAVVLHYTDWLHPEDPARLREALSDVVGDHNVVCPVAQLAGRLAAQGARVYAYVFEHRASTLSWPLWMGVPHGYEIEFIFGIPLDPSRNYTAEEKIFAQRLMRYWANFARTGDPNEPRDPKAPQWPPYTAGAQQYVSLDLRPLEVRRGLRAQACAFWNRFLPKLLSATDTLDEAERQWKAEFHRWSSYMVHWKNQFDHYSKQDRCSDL

SMILES	IC50 (Acetylcholinesterase [1]) [µM]	Papp at 8 h (in vitro) [×10⁻⁶ cm/s]	further results
O=C(c1ccccc1)N1CCC(CCN2C(=O)c3ccccc3C2=O)CC1	63	–	–
O=C1c2ccccc2C(=O)N1CCC1CCN(Cc2ccccc2)CC1	0.0132	–	–
COc1cc2c(cc1OC)C(=O)C(CC1CCN(Cc3cccc(CN)c3)CC1)C2 (centres undefined)	1.03	1.5	–
COc1cc2c(cc1OC)C(=O)C(CC1CCN(Cc3ccc(CN)cc3)CC1)C2 (centres undefined)	5.8	–	–
COc1cc2c(cc1OC)C(=O)C(CC1CCN(Cc3ccc(C(=O)O)cc3)CC1)C2 (centres undefined)	72.2	–	–
O=C1c2ccccc2C(=O)N1CC1CCN(Cc2ccccc2)CC1	22.8	10.7	–
COc1cc2c(cc1OC)C(=O)C(CC1CCNCC1)C2 (centres undefined)	9.45	–	–
COc1cc2c(cc1OC)C(=O)C(CC1CCN(CCN)CC1)C2 (centres undefined)	11.2	–	–
COc1cc2c(cc1OC)C(=O)C(CC1CCN(C(=O)c3ccccc3)CC1)C2 (centres undefined)	17.9	–	–
COc1cc(O)c(C(=O)Nc2nc(C(=O)NCCN(C(C)C)C(C)C)cs2)cc1OC [ACOTIAMIDE]	–	–	logP [2]: < 2; IC50 (Acetylcholinesterase [3]): 3 µM; logD (physchem): 0.7
Nc1cccc(CN2CCC(CCN3C(=O)c4ccccc4C3=O)CC2)c1	0.15	2.9	–
COc1cc2c(cc1OC)C(=O)C(CC1CCN(Cc3cccc(NC(=O)c4ccccc4)c3)CC1)C2 (centres undefined)	22.8	–	–
Nc1ccc(CN2CCC(CCN3C(=O)c4ccccc4C3=O)CC2)cc1	0.327	–	–
NCc1cccc(CN2CCC(CCN3C(=O)c4ccccc4C3=O)CC2)c1	0.299	1.4	–
COc1cc2c(cc1OC)C(=O)C(CC1CCN(Cc3cccc(N)c3)CC1)C2 (centres undefined)	0.0473	3.7	–
Clc1cccc(Cl)c1N=C1NCCN1 [CLONIDINE]	–	12.2	–
COc1cc2c(cc1OC)C(=O)C(CC1CCN(CCCCN)CC1)C2 (centres undefined)	14.6	–	–
Nc1ccc(CN2CCC(CN3C(=O)c4ccccc4C3=O)CC2)cc1	25.2	–	–
NCCc1ccc(O)c(O)c1 [DOPAMINE]	–	3.3	–
COc1cc2c(cc1OC)C(=O)C(CC1CCN(Cc3ccc(N)cc3)CC1)C2 (centres undefined)	0.0991	–	–
COc1cc2c(cc1OC)C(=O)C(CC1CCN(CCCN)CC1)C2 (centres undefined)	10.8	–	–
NCc1ccc(CN2CCC(CCN3C(=O)c4ccccc4C3=O)CC2)cc1	1.54	–	–
